Molecular target: T1, porcine pancreatic lipase (Sus scrofa, UniProt P00591)
T1 construct: purchased Sigma
T1 sequence (P00591 1-450): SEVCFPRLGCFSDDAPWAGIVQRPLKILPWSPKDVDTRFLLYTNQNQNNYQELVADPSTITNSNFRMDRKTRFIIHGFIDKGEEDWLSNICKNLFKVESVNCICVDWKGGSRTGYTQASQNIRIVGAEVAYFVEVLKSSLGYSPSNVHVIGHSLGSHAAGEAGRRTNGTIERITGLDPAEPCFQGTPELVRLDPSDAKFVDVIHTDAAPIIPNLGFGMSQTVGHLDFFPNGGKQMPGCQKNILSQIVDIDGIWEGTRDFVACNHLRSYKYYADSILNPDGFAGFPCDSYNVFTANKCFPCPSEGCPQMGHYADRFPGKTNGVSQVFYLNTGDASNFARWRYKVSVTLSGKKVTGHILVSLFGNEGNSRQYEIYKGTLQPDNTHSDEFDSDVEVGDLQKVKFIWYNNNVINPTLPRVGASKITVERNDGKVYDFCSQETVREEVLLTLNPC
Assay: Lipase inhibitory activity measurement (4-UMO fluorescence substrate)
Format: biochemical
Details: for IC50: 4-UMO substrate, pH 8.0, 25 degrees, 30 minutes of reaction; for lipase inhibitory activity (in words): summary of Table 1
Description: Lipase activity measurement was carried out by using oleic acid ester of fluorescence 4-methylumbelliferone (4-UMO) as a substrate, and measuring the fluorescence of 4-methylumbelliferone produced by reaction.
Substrate 4-UMO (Sigma) is prepared as 0.1 M solution in DMSO and diluted 1000 times with the buffer mentioned above. Similarly, lipase (porcine pancreatic lipase (Sigma)) is prepared as 400 U/ml solution in the buffer mentioned above and used in enzymatic measurement.
50 μl of 4-UMO buffer solution and 25 μl of distilled water (or sample solution) are placed in 96 well microplate and mixed at 25 degrees, followed by adding 25 μl of lipase buffer solution to start enzyme reaction. After 30 minutes of reaction, 100 μl of 0.1 M citric acid buffer (pH 4.2) was added to terminate the reaction, and fluorescence of 4-methylumbelliferone (excitation wavelength: 355 nm, fluorescence wavelength: 460 nm) produced by the reaction was measured with a fluorescence plate reader (Labsystems, Fluoroskan Asent CF).

IC50 [nM]	lipase inhibitory activity (in words)	SMILES
> 50000	–	O=C(O[C@@H]1O[C@H](CO)[C@@H](O)[C@H](O)[C@H]1O)c1cc(O)c(O)c(O)c1 [β-glucogallin (2), β-glucogallin]
203	showed lipase inhibitory activity	O=C(OC[C@H]1OC(OC(=O)c2cc(O)c(O)c(O)c2)[C@H](OC(=O)c2cc(O)c(O)c(O)c2)[C@@H](O)[C@@H]1OC(=O)c1cc(O)c(O)c(O)c1)c1cc(O)c(O)c(O)c1 (some centres unmarked) [1,2,4,6-tetra-GA-Glc (6), 1,2,4,6-tetragalloylglucose]
74	showed lipase inhibitory activity	O=C(O[C@@H]1O[C@@H]2COC(=O)c3cc(O)c(O)c(O)c3-c3c(cc(O)c(O)c3O)C(=O)O[C@H]2[C@H](OC(=O)c2cc(O)c(O)c(O)c2)[C@H]1OC(=O)c1cc(O)c(O)c(O)c1)c1cc(O)c(O)c(O)c1 [Tellimagrandin2 (8), Tellimagrandin 2]
1230	showed lipase inhibitory activity	O=C(OCC1OC(OC(=O)c2cc(O)c(O)c(O)c2)C(O)C(O)C1OC(=O)c1cc(O)c(O)c(O)c1)c1cc(O)c(O)c(O)c1 [1,4,6-tri-O-galloyl-D-glucose (4), 1,4,6-tri-O-galloyl-D-glucose]
127	showed lipase inhibitory activity	O=C(O[C@H]1[C@@H]2OC(=O)c3cc(O)c(O)c(O)c3-c3c(cc(O)c(O)c3O)C(=O)OC[C@H]2OC(O)[C@@H]1OC(=O)c1cc(O)c(O)c(O)c1)c1cc(O)c(O)c(O)c1 (some centres unmarked) [Tellimagrandin1 (7), Tellimagrandin 1]
472	showed lipase inhibitory activity	O=C(O[C@@H]1O[C@@H]2COC(=O)c3cc(O)c(O)c(O)c3-c3c(cc(O)c(O)c3O)C(=O)O[C@H]2[C@H](O)[C@H]1O)c1cc(O)c(O)c(O)c1 [strictinin (5), strictinin]
> 50000	–	O=C(O[C@@H]1C[C@](O)(C(=O)O)C[C@@H](O)[C@H]1O)c1cc(O)c(O)c(O)c1 [theogallin (3), theogallin]

SMILES	IC50 [nM]	lipase inhibitory activity (in words)
O=C(O)c1cc(O)c(O)c(O)c1 [Galli acid (1), Gallic acid, reference compound]	> 50000	showed no activity

Source: patent publication US7754695B2, “Lipase inhibitors” (Suntory Holdings Limited, priority 2004, dated 2010)
